Experiment [1] deals with Tyrosine-protein kinase ABL1 (Homo sapiens) (UniProt P00519). As to the kind of experiment: Inhibition of human full-length ABL expressed in baculovirus assessed as substrate phosphorylation using fluorescence-labelled peptides as substrate at 420 uM after 90 mins by microfluidic peptide phosphorylation assay.
Experiment [2] concerns the target Serine/threonine-protein kinase MARK2 (Homo sapiens) (UniProt Q7KZI7). As to the kind of experiment: Inhibition of human full length MARK2 expressed in baculovirus assessed as substrate phosphorylation using fluorescence-labelled peptides as substrate at 420 uM after 90 mins by microfluidic peptide phosphorylation assay.
For experiment [3], the target named is Ribosomal protein S6 kinase alpha-4 (Homo sapiens) (UniProt O75676). Kind of experiment: Inhibition of human full length MSK2 expressed in baculovirus assessed as substrate phosphorylation using fluorescence-labelled peptides as substrate at 420 uM after 90 mins by microfluidic peptide phosphorylation assay.
Experiment [4] addresses Serine/threonine-protein kinase MARK2 (Homo sapiens) (UniProt Q7KZI7). As to the kind of experiment: Inhibition of human full length MARK2 expressed in baculovirus assessed as substrate phosphorylation using fluorescence-labelled peptides as substrate at 0.06 uM after 90 mins by microfluidic peptide phosphorylation assay.
The target of experiment [5] is MAP kinase-activated protein kinase 3 (Homo sapiens) (UniProt Q16644). As to the kind of experiment: Inhibition of human full length MAPKAPK3 expressed in Escherichia coli cell assessed as substrate phosphorylation using fluorescence-labelled peptides as substrate at 0.06 uM after 90 mins by microfluidic peptide phosphorylation assay.
Experiment [6] concerns the target T1, Testis-specific serine/threonine-protein kinase 2 (Homo sapiens) (UniProt Q96PF2).
T1 sequence (whole entry): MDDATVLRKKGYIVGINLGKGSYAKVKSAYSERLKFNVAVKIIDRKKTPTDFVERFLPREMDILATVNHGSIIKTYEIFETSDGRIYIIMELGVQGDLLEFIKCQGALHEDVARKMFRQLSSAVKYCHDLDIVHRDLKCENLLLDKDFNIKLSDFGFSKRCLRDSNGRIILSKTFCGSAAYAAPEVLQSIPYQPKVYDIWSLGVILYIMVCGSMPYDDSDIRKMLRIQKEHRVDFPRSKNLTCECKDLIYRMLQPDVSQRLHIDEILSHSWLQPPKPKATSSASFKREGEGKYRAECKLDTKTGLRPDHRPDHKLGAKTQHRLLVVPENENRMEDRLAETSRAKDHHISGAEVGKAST
Kind of experiment: Inhibition of human full length TSSK2 expressed in baculovirus assessed as substrate phosphorylation using fluorescence-labelled peptides as substrate at 9 uM after 90 mins by microfluidic peptide phosphorylation assay.

The target in experiment [7] is Ribosomal protein S6 kinase alpha-2 (Homo sapiens) (UniProt Q15349). As to the kind of experiment: Inhibition of human full length RSK3 expressed in baculovirus assessed as substrate phosphorylation using fluorescence-labelled peptides as substrate at 9 uM after 90 mins by microfluidic peptide phosphorylation assay.
The target of experiment [8] is Serine/threonine-protein kinase PAK 2 (Homo sapiens) (UniProt Q13177). As to the kind of experiment: Inhibition of human truncated PAK2 expressed in Escherichia coli cell assessed as substrate phosphorylation using fluorescence-labelled peptides as substrate at 70 uM after 90 mins by microfluidic peptide phosphorylation assay.
Experiment [9] has as its target Tyrosine-protein kinase Fer (Homo sapiens) (UniProt P16591). As to the kind of experiment: Inhibition of human FER catalytic domain expressed in baculovirus assessed as substrate phosphorylation using fluorescence-labelled peptides as substrate at 70 uM after 90 mins by microfluidic peptide phosphorylation assay.
Experiment [10] concerns the target T2, Serine/threonine-protein kinase BRSK2 (Homo sapiens) (UniProt Q8IWQ3).
T2 sequence (whole entry): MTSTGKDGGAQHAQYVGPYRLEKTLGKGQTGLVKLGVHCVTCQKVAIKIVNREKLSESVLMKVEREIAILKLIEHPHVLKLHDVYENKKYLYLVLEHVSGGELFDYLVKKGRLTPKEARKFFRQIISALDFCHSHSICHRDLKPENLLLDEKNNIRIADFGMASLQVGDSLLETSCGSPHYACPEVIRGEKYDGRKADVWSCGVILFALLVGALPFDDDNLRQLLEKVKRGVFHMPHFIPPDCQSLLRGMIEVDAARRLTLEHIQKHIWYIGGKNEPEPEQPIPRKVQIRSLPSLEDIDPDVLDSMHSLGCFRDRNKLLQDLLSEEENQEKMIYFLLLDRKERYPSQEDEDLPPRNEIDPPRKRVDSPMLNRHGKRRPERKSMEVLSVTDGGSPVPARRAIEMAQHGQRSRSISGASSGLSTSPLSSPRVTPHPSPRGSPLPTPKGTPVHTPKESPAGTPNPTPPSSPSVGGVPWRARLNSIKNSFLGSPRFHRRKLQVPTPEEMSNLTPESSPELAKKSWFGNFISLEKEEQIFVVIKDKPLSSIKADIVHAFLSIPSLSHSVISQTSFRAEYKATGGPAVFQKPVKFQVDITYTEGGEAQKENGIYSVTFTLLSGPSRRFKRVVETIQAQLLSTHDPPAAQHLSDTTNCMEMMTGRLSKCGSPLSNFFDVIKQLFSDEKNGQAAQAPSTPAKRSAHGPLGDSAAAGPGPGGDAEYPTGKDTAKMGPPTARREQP
Kind of experiment: Inhibition of human truncated BRSK2 expressed in baculovirus assessed as substrate phosphorylation using fluorescence-labelled peptides as substrate at 95 uM after 90 mins by microfluidic peptide phosphorylation assay.

Experiment [11] concerns the target T3, Serine/threonine-protein kinase 3 (Homo sapiens) (UniProt Q13188).
T3 sequence (whole entry): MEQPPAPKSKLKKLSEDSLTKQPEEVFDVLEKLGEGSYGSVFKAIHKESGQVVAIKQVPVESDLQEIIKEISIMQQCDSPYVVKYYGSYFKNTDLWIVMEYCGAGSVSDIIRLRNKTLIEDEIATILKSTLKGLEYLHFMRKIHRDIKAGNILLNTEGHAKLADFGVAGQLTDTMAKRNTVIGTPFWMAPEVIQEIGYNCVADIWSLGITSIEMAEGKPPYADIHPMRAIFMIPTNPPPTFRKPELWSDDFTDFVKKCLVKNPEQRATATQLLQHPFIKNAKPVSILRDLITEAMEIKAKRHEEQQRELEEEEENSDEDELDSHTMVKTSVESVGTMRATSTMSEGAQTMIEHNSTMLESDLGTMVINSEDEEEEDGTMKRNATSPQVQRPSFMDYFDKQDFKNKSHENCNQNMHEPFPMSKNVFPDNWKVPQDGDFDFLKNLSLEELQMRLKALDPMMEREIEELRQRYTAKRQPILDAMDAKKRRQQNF
Kind of experiment: Inhibition of human full length MST2 expressed in baculovirus assessed as substrate phosphorylation using fluorescence-labelled peptides as substrate at […] after 90 mins by microfluidic peptide phosphorylation assay.

Serine/threonine-protein kinase MARK2 (Homo sapiens), sequence (Q7KZI7 whole entry): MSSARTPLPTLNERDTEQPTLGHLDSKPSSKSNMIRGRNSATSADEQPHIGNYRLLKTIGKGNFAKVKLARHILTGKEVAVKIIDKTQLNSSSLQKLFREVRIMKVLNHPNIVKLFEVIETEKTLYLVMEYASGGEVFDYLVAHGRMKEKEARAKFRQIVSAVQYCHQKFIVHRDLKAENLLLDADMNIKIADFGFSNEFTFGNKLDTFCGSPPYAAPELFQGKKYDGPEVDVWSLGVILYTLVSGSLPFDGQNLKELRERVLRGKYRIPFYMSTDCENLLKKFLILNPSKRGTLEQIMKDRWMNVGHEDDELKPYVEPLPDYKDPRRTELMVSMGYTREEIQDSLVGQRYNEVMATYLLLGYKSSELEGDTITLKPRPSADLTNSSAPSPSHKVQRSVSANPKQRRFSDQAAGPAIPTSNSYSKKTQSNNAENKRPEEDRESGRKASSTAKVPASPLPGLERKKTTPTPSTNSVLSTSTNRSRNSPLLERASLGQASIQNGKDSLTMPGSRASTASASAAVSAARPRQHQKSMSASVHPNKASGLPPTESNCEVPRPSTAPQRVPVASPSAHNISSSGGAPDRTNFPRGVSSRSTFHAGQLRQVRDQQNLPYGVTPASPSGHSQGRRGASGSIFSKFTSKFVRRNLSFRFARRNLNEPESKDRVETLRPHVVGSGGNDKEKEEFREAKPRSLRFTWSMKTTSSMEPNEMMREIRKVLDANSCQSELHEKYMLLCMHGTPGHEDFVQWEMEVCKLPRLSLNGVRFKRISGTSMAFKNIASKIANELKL
Tyrosine-protein kinase ABL1 (Homo sapiens), sequence (P00519 whole entry): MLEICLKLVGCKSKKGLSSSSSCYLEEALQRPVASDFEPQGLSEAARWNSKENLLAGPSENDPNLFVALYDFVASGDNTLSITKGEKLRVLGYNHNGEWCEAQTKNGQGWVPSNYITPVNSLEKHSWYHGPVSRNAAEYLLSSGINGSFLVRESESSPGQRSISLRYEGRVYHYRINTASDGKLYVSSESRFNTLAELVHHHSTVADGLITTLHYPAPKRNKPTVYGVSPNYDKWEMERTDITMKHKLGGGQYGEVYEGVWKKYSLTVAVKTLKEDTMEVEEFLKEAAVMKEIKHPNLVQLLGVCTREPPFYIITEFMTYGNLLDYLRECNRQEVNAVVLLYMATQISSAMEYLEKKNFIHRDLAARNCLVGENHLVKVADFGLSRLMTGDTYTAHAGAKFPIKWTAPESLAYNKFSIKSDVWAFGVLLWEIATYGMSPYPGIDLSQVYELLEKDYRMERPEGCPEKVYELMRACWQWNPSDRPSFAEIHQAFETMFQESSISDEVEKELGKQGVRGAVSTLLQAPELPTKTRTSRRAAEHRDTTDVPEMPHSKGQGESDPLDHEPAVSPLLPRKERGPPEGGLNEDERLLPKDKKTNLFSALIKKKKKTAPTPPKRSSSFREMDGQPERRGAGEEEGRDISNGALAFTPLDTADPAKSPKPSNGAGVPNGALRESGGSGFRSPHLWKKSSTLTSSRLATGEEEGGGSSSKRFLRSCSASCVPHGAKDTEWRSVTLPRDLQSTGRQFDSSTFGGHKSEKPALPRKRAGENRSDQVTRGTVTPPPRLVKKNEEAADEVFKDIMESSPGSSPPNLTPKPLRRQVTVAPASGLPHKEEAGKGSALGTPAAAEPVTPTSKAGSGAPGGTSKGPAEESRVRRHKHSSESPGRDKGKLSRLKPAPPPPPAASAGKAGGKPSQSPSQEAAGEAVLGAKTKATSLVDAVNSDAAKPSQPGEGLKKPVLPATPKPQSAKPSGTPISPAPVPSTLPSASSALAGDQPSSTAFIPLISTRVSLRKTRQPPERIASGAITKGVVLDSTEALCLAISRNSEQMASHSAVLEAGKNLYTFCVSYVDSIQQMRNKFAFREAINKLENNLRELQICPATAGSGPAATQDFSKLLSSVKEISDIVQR
Serine/threonine-protein kinase PAK 2 (Homo sapiens), sequence (Q13177 whole entry, the tested form may be a part): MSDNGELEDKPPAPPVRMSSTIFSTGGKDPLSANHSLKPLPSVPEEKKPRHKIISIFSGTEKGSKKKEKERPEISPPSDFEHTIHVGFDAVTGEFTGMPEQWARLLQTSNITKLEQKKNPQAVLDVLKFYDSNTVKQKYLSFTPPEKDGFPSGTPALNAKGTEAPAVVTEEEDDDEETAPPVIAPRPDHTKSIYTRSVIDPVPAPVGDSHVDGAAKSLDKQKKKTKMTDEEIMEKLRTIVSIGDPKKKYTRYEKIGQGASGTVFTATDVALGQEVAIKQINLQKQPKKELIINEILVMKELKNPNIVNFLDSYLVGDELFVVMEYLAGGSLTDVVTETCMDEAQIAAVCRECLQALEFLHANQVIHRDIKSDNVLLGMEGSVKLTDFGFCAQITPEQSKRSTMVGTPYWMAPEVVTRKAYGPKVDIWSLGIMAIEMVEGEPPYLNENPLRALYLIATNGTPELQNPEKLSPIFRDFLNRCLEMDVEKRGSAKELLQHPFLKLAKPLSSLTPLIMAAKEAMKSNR
MAP kinase-activated protein kinase 3 (Homo sapiens), sequence (Q16644 whole entry, looked up): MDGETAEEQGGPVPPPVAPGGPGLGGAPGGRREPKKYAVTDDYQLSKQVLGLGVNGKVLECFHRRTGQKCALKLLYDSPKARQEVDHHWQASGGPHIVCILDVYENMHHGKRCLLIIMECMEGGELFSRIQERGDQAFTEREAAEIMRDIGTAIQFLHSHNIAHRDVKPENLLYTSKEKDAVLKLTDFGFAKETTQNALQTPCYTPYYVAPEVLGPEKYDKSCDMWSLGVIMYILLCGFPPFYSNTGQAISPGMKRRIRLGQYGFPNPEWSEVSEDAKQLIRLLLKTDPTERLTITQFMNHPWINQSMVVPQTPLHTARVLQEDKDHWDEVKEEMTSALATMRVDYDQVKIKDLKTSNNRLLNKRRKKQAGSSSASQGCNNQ
Ribosomal protein S6 kinase alpha-2 (Homo sapiens), sequence (Q15349 whole entry, the tested form may be a part): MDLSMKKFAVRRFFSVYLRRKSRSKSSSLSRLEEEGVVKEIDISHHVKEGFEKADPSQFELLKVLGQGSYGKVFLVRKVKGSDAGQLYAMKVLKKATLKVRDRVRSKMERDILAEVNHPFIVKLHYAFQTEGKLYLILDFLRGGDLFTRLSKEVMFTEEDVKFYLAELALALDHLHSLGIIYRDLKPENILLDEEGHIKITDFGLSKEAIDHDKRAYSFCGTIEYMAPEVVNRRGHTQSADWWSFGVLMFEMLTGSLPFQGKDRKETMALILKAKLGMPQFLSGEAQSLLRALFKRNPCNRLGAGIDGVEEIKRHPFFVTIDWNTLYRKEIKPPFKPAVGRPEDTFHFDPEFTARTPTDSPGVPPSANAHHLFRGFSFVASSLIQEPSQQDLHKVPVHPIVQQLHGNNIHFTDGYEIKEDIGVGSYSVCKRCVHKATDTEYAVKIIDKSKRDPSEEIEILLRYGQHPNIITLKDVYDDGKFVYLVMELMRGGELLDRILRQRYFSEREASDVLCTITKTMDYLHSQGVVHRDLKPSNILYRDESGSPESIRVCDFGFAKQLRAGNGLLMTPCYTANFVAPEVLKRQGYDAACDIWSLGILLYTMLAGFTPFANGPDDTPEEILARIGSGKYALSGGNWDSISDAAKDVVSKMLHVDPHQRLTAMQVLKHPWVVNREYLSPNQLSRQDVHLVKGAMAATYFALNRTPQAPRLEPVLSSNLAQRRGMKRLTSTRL
Tyrosine-protein kinase Fer (Homo sapiens), sequence (P16591 whole entry, looked up, the tested form may be a part): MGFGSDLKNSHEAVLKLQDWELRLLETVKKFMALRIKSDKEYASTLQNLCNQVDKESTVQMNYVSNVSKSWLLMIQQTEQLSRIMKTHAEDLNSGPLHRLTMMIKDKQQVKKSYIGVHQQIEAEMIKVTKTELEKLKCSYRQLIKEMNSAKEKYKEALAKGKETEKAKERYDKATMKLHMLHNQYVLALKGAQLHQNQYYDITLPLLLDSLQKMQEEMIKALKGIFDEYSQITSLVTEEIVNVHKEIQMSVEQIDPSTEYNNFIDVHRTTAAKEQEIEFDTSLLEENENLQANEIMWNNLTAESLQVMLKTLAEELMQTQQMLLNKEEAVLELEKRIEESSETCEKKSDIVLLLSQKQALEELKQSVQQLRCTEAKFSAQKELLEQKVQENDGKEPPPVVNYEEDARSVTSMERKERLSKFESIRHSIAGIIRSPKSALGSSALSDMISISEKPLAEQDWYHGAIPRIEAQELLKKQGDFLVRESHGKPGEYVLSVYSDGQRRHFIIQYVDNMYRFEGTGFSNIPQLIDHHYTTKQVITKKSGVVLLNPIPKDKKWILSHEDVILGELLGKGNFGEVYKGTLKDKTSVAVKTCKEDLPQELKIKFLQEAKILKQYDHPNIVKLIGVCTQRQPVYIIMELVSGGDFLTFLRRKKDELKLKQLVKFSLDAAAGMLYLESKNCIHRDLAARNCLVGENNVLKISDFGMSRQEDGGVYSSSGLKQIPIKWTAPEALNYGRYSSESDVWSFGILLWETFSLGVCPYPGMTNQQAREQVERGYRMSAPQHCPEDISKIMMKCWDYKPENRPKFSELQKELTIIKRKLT

For the compound `c1nc(N2CCOCC2)c2nc[nH]c2n1`, the inhibition was 69% in [1], 88% in [2] and 76% in experiment [3].

For the compound `NC1(Cc2ccc(Cl)cc2)CCN(c2ncnc3[nH]ccc23)CC1`, the inhibition in experiment [4] was 0%; in experiment [5], 7%. `NCC1CN(c2ncnc3[nH]c4cnccc4c23)CCO1` (stereo unspecified): the inhibition in experiment [6] turned out to be 0%; in experiment [7] it was 95.5%. For the compound `CNCc1ccc(-c2ncnc3[nH]cnc23)cc1`, the figures for the inhibition in [8] and in experiment [9] were 26% and 30%, respectively. For `NCCc1ccc(-c2ncnc3[nH]cnc23)cc1`, the inhibition in [10] turned out to be 40%. In the case of `COC(=O)c1cnc(Nc2cnc(C#N)cn2)cc1NCC1CCNCC1`, the inhibition in experiment [11] turned out to be 0.5%.
